Values of other authors in patent US8399704B2, “Methods for salt production” (Colgate-Palmolive Company, priority 2008, dated 2013).

Conditions: room temperature, natural partial pressure (3.5×10^−4 atmosphere)

maximum concentration of carbon dioxide in water: about 1.2×10^−5 M
Structure (SMILES): O=C=O [Carbon dioxide]
